Assay results taken from patent publication US9155761B2, “Method for the treatment of cancer” (UNIVERSITY COLLEGE CORK, NATIONAL UNIVERSITY OF IRELAND, …, priority 2009, dated 2015).
Entries after “also recorded” stand apart in the source; their conditions may differ.

Tests used:
[1] = system: LC3 in KYSE450 cells; experiment: LC3 / GFP-LC3 processing and distribution (Western blot, fluorescence microscopy); assay type: cell-based, human
Protocol: (§1) Total cellular protein extracts were prepared by scraping the cells into modified RIPA buffer (50 mM Tris HCl (pH 7.4), 150 mM NaCl, 0.25% Sodium deoxycholate, 1% Igepal, protease inhibitors 1 mM EDTA, 1× Pefabloc, 1× protease inhibitor cocktail, 1 mM Na3VO4, 1 mM NaF). All protein samples were separated by SDS-PAGE (10/12%) and electrophoretically transferred onto nitrocellulose membrane. All primary antibodies were incubated overnight at 4° C.: anti-phospho mTOR (Ser 2448) and anti-p70^S6K (Thr 389) (Cell Signaling Technologies, UK), anti-Beclin-1 (BD Biosciences, UK) and anti-LC3 (Medical & Biological Laboratories, Japan). The membranes were incubated with the relevant horseradish peroxidase conjugated secondary antibodies (DakoCytomation, Dublin) and detected by chemiluminescence (ECL Amersham, UK).
(§2) To visualize and quantify the formation of autophagic vesicles, the green fluorescent protein (GFP)-LC3 (pEGFP-LC3) expression vector, kindly supplied by Dr. T. Yoshimori (National Institute of Genetics, Japan) was used. Cells were transiently transfected with the Amaxa electroporation system according to the supplier's protocol. Twenty-four hours post transfection, cells were treated with 5-FU and/or Cisplatin, fixed in 4% paraformaldehyde in PBS and transferred onto slides using a non-fluorescent fixative for analysis by fluorescence microscopy. Alternatively, Western Blot analysis was used to assess the expression and processing of LC3. […] The membrane sequestered, lipid-conjugated form of LC3-II remains with the autophagosome membrane after the vesicle has formed, and levels of both isoform are detected by Western Blot. Transfection efficiency was consistent for a given cell line, OE33 and KYSE450 cell lines (˜60-70%) compared to OE19 and OE21 cell lines (˜30%).

[2] = system: LC3 in OE19 cells; experiment: as above; assay type: cell-based, human
Protocol: as §1, §2

[3] = system: LC3 in OE21 cells; experiment: as above; assay type: cell-based, human
Protocol: as §1, §2

[4] = system: LC3 in OE33 cells; experiment: as above; assay type: cell-based, human
Protocol: as §1, §2

[5] = system: LLC-Luc cells; experiment: FITC conjugated LC3 staining of LLC-Luc cells in vitro; assay type: cell-based; conditions: 5-FU in vitro, 24 and 48 hours
Description: FITC conjugated LC3 (a known marker of autophagy), forms a green punctate staining pattern in the cytoplasm when it accumulates in forming autophagosomes.

[6] = 5-FU or cisplatin (images not shown)

## O=c1[nH]cc(F)c(=O)[nH]1 [5-FU, 5-fluorouracil]
[1]; 5-FU or cisplatin (data not shown)
  GFP-LC3 distribution (fluorescence microscopy): Redistribution of GFP-LC3 from a diffuse cytosolic to a punctate autophagosome-associated pattern
[1]; 5-FU, 24 hours
  LC3II levels (Western blot, GFP-LC3): significant increase in LC3II levels
[2]; 5-FU (25 & 50 μM) or cisplatin (10 & 25 μM)
  GFP-LC3 distribution (fluorescence microscopy): Redistribution of GFP-LC3 from a diffuse cytosolic to a punctate autophagosome-associated pattern; also recorded: bright punctate patterns of GFP-LC3 fluorescence
[2]; 5-FU, 24 hours
  LC3II levels (Western blot, GFP-LC3): significant increase in LC3II levels
[3]; [6]
  GFP-LC3 distribution (fluorescence microscopy): Diffuse cytoplasmic localization of GFP-LC3
[3]; 24 and 48 hours
  induction of autophagosome-associated LC3II band (Western blot): no induction of a lower autophagosome-associated LC3II-band
[4]; [6]
  GFP-LC3 distribution (fluorescence microscopy): Diffuse cytoplasmic localization of GFP-LC3
[4]; 24 and 48 hours
  induction of autophagosome-associated LC3II band (Western blot): no induction of a lower autophagosome-associated LC3II-band
[5]
  autophagy (FITC conjugated LC3 punctate staining): the extent of autophagy is greatly enhanced
